Values quoted from earlier work in paper PMC4128785 (Molecular Pharmaceutics, 2014).

Conditions: Sc(III) complex of DOTA

thermodynamic stability (−log K): 27.0
Structure (SMILES): O=C(O)CN1CCN(CC(=O)O)CCN(CC(=O)O)CCN(CC(=O)O)CC1 [DOTA, 1,4,7,10-tetraazacyclododecane-N,N′,N″,N‴-tetraacetic acid]
